Measurements as given in publication PMC5617480 (Oncotarget, 2017).

How the values were obtained:
HL-7702 normal cells = settings: ref [1], cited from earlier work; for selectivity index factor, IC50 (normal HL-7702 cells)/IC50 (BEL-7404 tumor cells): 48 h; for IC50: HL-7702, 48 h
c-kit-1 = system: c-kit-1; design: method as in earlier work; settings: ref [1], cited from earlier work; for ctDNADC50/c-kit-1DC50: FID selectivity ratio; for c-kit-1DC50: FID
MGC80-3 cells = system: MGC80-3 cells; design: method as in earlier work; settings: MGC80-3, 48 h; ref [1]; cited from earlier work
[1] = system: HTG21 (human telomeric) G4; assay: FID assay; format: binding; settings: for HTG21DC50: FID; for ctDNADC50/HTG21DC50: FID selectivity ratio
Experimental: (§1) We asked whether chiral platinum(II) complexes 4–6 have the ability to bind to G-quadruplex DNA. To address this, FRET assays, CD spectroscopy, G4-FID assays, and fluorescence titration analysis were performed. […] For G4-HTG21, the ^G4DC50 values of complexes 4–6 were 1.23, 1.26 and 0.99 μM, respectively; while, for G4-Pu27, the ^G4DC50 values were 1.01, 0.89, and 0.82 μM, respectively. In addition, the ^ctDNADC50/^G4DC50 ratio of the HTG21 and Pu27 G4s treated with complexes 4–6 was in the range of 50.54-90.65 and 71.56-110.67 folds, respectively. To further evaluate the binding ability of complexes 4–6 to Pu27 and HTG21G4s, CD spectroscopy and fluorescence titration analysis were performed. […] The quenching ability of complexes 4–6 to HTG21 and Pu27 G4 DNA fluorescence can be quantitatively estimated by their respective quenching constant (Kq), which was derived from the Stern-Volmer quenching equation. […] Finally, the selective binding of complexes 4–6 towards G4 DNA was analyzed by FRET-melting assays. […] In contrast, the ΔTm value for the F32T+H20M duplex DNA in the presence of complexes 4–6 was 1.18, 1.34, and 0.78 °C under the same conditions (Figure 4A). Altogether, our data indicated complexes 4–6, especially complex 6, is the best binder to G4 DNA, which caused DNA complex displaying the highest thermodynamic stability. […]
(§2) Supplementary Figure 20: FID results onto 4 (A), 5 (B) and 6 (C) toward DNA in sodium cacodylate buffer solution. […]

ctDNA = assay: FID assay; format: binding; settings: for ctDNADC50: FID; for ctDNADC50/ctDNADC50: FID selectivity ratio
Experimental: as §1, §2

Pu27 (c-myc) G4 = assay: FID assay; format: binding; settings: for Pu27DC50: FID; for ctDNADC50/Pu27DC50: FID selectivity ratio
Experimental: as §1, §2

HTG21 G4 = assay: Fluorescence titration (Stern-Volmer quenching); format: binding, human; settings: HTG21 G4-DNA, compound 20 μM, 100 mM K+
Experimental: as §1
Supplementary Figure 25: Fluorescence emission spectra of compounds (20 μM) in 100 mM K+ solution in the absence and
presence of human telomeric G-quadruplex DNA with 4 (A), 5 (B) and 6 (C), respectively.

Pu22 = assay: FID assay; format: binding; settings: for Pu22DC50: FID; for ctDNADC50/Pu22DC50: FID selectivity ratio
BEL-7404 cells = assay: Apoptosis analysis (annexin V-FITC/PI flow cytometry); format: cell-based, human; settings: BEL-7404, 10 μM, 24 h; untreated 6.1%
Experimental: Platinum(II)-based drugs were widely used in anticancer chemotherapies, therefore, we performed experiments to test the potency of chiral platinum(II) complexes 4–6 for inducing senescence and apoptosis in BEL-7404 cells. […] We next investigated the effect of complexes 4–6 on the induction of apoptosis. BEL-7404 cells were incubated with complexes 4 (10 and 20 μM), 5 (10 and 20 μM) and 6 (5, 10 and 20 μM) for 24 h, respectively, and then these cells staining with PI and Annexin-V-FITC were determined by flow cytometry (Figure 3A and Supplementary Figure 18). As shown in Figure 3A and Supplementary Figure 18, after treated of complexes 4–6 with 10 μM for 24 h, the percentage of apoptotic cells (including early-stage and late-stage, Q2+Q4) was 13.1%, 7.0% and 25.4%, respectively, whereas the normal cells was only 6.1%. We further investigated the ability of complexes 4–6 (5, 10 and 20 μM) to induce BEL-7404 cell cycle arrest (Figure 3B and Supplementary Figure 19). Cells were treated with complexes 4–6 at 10 μM for 48 h, the cell cycle arrest was determined by using flow cytometry. […]
Apoptosis analysis c-myc antibody, or anti-β-actin primary antibody and the Apoptosis was detected by flow cytometric analysis corresponding secondary antibody were used to detect of annexin V staining. […] Then, cells were incubated with annexin V-FITC and PI for 1.0 h at Staining for SA-β-Gal activity was carried out room temperature in the dark and immediately analyzed according to Moore and Chen reports. […] The data are presented as biparametric After the long-term incubation with complexes 4–6, the dot plots showing PI red fluorescence vs annexin V-FITC growth medium was aspirated and the BEL-7404 cells green fluorescence. were fixed in 2% formaldehyde/0.2% glutaraldehyde for 15.0 min at room temperature. […] Finally, the extraction, RT-PCR, and the selective binding to G4s by BEL-7404 cell cycle was determined with FACS Calibur complexes 4–6 was according to the our previous reported flow cytometer (BD) and analyzed using Cell Quest. […]

Row | Compound | selectivity index factor, IC50 (normal HL-7702 cells)/IC50 (BEL-7404 tumor cells) (HL-7702 normal cells) | IC50 (HL-7702 normal cells) [µM] | ctDNADC50/c-kit-1DC50 (c-kit-1) | c-kit-1DC50 (c-kit-1) [µM] | IC50 (MGC80-3 cells) [µM] | HTG21DC50 [1] [µM] | ctDNADC50/HTG21DC50 [1] | ctDNADC50 (ctDNA) [µM] | ctDNADC50/ctDNADC50 (ctDNA) | Pu27DC50 (Pu27 (c-myc) G4) [µM] | ctDNADC50/Pu27DC50 (Pu27 (c-myc) G4) | Extent of quenching (%) (HTG21 G4) | Kq (quenching constant, Stern-Volmer) (HTG21 G4) | Pu22DC50 (Pu22) [µM] | ctDNADC50/Pu22DC50 (Pu22) | percentage of apoptotic cells (early-stage and late-stage, Q2+Q4) (BEL-7404 cells) [%]
1 | O=C(NCC(O)CO)c1cnc2c3c(cccc13)-c1ccccc1C2=O.[Cl-].[Cl-].[Pt+2] (racemic) [ligand 1, R/S-(±)-FOA] | > 5.8 | > 100 | 0.96 | 66.35 | 32.4 ± 0.8 |  |  |  |  |  |  |  |  |  |  | 
2 | O=C(NC[C@@H](O)CO)c1cnc2c3c(cccc13)-c1ccccc1C2=O.[Cl-].[Cl-].[Pt+2] [ligand 2, R-(+)-FOA] | > 4.9 | > 100 | < 0.40 | > 100 | 45.8 ± 2.8 |  |  |  |  |  |  |  |  |  |  | 
3 | O=C(NC[C@H](O)CO)c1cnc2c3c(cccc13)-c1ccccc1C2=O.[Cl-].[Cl-].[Pt+2] [ligand 3, S-(–)-FOA] | 5.3 | 81.4 ± 2.7 | 36.66 | 2.45 | 35.7 ± 2.9 |  |  |  |  |  |  |  |  |  |  | 
4 | cis-[PtCl2(R-(+)-FOA)] [complex 5] |  |  |  |  |  | 1.26 | 50.54 | 63.69 | 1.00 | 0.89 | 71.56 | 27.21 | 4.36×10^4 L·mol–1 | 1.74 | 36.60 | 7.0
5 | cis-[PtCl2(R/S-(±)-FOA)] [complex 4] |  |  |  |  |  | 1.23 | 61.68 | 75.87 | 1.00 | 1.01 | 75.11 | 27.34 | 4.60×10^4 L·mol–1 | 7.41 | 10.24 | 13.1
6 | cis-[PtCl2(S-(–)-FOA)] [complex 6] |  |  |  |  |  | 0.99 |  | 90.73 | 1.00 | 0.82 | 110.67 | 28.42 | 4.65×10^4 L·mol–1 | 1.14 | 79.59 | 25.4
